Values quoted from earlier work, collected in patent EP1190712A1 (SMB Technology, priority 2000, dated 2002).

Conditions: human, in vivo

**Q.** With `COc1cccc(C2(O)CCCCC2CN(C)C)c1` (stereo not shown) [Tramadol] as the compound, how does the “Cmax (time)” value read?
**A.** 30 to 60 min
